# Assay results as given in ChEMBL document CHEMBL3745617 (J Med Chem, 2015).
# Experiments:
# [1] = Cytotoxicity against mouse BAF3 cells assessed as cell proliferation after 72 hrs by CelltiterGlo assay; type: cell-based
# MV4-11 = assay: Antiproliferative activity against human MV4-11 cells after 72 hrs by CelltiterGlo assay; type: functional; details: MV4-11, 72 h
# [2] = test system: Receptor-type tyrosine-protein kinase FLT3 (Homo sapiens), P36888 [UNDEFINED MUTATION]; assay: Inhibition of FLT3 ITD mutant (unknown origin) expressed in BaF3 cells assessed as inhibition of cell proliferation after 72 hrs by CelltiterGlo assay; type: cell-based
# Receptor-type tyrosine-protein kinase FLT3 (Homo sapiens), P36888 [UNDEFINED MUTATION], sequence (P36888 whole entry, looked up, change not shown): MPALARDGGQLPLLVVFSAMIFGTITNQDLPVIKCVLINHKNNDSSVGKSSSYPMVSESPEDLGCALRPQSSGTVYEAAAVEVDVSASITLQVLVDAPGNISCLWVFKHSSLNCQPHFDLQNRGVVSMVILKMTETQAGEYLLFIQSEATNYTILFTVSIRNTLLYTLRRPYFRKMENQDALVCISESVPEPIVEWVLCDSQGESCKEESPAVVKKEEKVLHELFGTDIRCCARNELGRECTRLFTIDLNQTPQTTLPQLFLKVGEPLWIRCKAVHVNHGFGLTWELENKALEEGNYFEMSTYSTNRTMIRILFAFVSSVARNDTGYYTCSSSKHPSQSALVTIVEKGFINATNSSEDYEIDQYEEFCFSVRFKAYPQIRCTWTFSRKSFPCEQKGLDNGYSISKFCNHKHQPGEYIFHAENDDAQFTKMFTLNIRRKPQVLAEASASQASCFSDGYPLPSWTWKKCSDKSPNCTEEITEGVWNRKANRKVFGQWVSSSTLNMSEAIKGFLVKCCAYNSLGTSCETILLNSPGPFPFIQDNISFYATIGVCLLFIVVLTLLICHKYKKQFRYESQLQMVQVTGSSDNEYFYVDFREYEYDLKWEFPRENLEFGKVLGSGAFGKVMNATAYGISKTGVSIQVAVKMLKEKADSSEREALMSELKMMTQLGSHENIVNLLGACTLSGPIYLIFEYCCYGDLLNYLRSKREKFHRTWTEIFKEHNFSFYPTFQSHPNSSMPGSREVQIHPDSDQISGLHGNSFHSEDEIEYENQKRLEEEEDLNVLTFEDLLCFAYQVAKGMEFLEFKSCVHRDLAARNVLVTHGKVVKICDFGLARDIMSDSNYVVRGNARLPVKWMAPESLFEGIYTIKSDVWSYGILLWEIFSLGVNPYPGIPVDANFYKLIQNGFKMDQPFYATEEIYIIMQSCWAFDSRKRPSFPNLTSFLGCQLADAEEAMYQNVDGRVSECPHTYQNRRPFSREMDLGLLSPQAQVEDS
SMILES,GI50 at 72 h [1],GI50 (MV4-11),GI50 [2]
CS(=O)(=O)N1CC[C@@H](n2nc(-c3ccc(Oc4ccccc4)cc3)c3c(N)ncnc32)C1,> 10000 nM,420 nM,130 nM
CN1CCN(CC(=O)N2CCC[C@@H](n3nc(-c4ccc(Oc5ccccc5)cc4)c4c(N)ncnc43)C2)CC1,2300 nM,230 nM,93 nM
Nc1ncnc2c1c(-c1ccc(Oc3ccccc3)cc1)nn2[C@@H]1CCCN(C(=O)CC2CC2)C1,3600 nM,410 nM,82 nM
CC(C)(C)CC(=O)N1CCC[C@@H](n2nc(-c3ccc(Oc4ccccc4)cc3)c3c(N)ncnc32)C1,4600 nM,2400 nM,460 nM
CC(C)C[C@@H](N)C(=O)N1CCC[C@@H](n2nc(-c3ccc(Oc4ccccc4)cc3)c3c(N)ncnc32)C1,1300 nM,32 nM,5 nM
CC(C)C[C@@H](N)C(=O)N1CCC(n2nc(-c3ccc(Oc4ccccc4)cc3)c3c(N)ncnc32)CC1,590 nM,210 nM,75 nM
CCCS(=O)(=O)N1CCC[C@@H](n2nc(-c3ccc(Oc4ccccc4)cc3)c3c(N)ncnc32)C1,8600 nM,760 nM,160 nM
CCC(C)(C)C(=O)N1CCC[C@@H](n2nc(-c3ccc(Oc4ccccc4)cc3)c3c(N)ncnc32)C1,4500 nM,2400 nM,260 nM
CN(C)CC(=O)N1CCC[C@H](n2nc(-c3ccc(Oc4ccccc4)cc3)c3c(N)ncnc32)C1,5800 nM,280 nM,120 nM
CS(=O)(=O)N1CCC[C@@H](n2nc(-c3ccc(Oc4ccccc4)cc3)c3c(N)ncnc32)C1,> 10000 nM,170 nM,48 nM
Nc1ncnc2c1c(-c1ccc(Oc3ccccc3)cc1)nn2[C@@H]1CCCN(C(=O)C2CC2)C1,> 10000 nM,6500 nM,1400 nM
C=CC(=O)N1CCC[C@@H](n2nc(-c3ccc(Oc4ccccc4)cc3)c3c(N)ncnc32)C1 [IBRUTINIB],> 10000 nM,–,120 nM
CCCC(=O)N1CCC[C@@H](n2nc(-c3ccc(Oc4ccccc4)cc3)c3c(N)ncnc32)C1,> 10000 nM,1200 nM,450 nM
CC(C)(C)C(=O)N1CCC[C@@H](n2nc(-c3ccc(Oc4ccccc4)cc3)c3c(N)ncnc32)C1,> 10000 nM,> 10000 nM,1800 nM
C[C@@H](N)C(=O)N1CCC[C@@H](n2nc(-c3ccc(Oc4ccccc4)cc3)c3c(N)ncnc32)C1,3800 nM,54 nM,22 nM
CN(C)CC(=O)N1CC[C@@H](n2nc(-c3ccc(Oc4ccccc4)cc3)c3c(N)ncnc32)C1,8420 nM,83 nM,41 nM

SMILES,GI50 at 72 h [1],GI50 (MV4-11),GI50 [2]
Nc1ncnc2c1c(-c1ccc(Oc3ccccc3)cc1)nn2[C@@H]1CCCN(C(=O)[C@H](N)CO)C1,6500 nM,61 nM,46 nM
NCC(=O)N1CCC[C@@H](n2nc(-c3ccc(Oc4ccccc4)cc3)c3c(N)ncnc32)C1,3800 nM,22 nM,7 nM
CCS(=O)(=O)N1CCC[C@@H](n2nc(-c3ccc(Oc4ccccc4)cc3)c3c(N)ncnc32)C1,4000 nM,570 nM,140 nM
CN(C)CC(=O)N1CCC(n2nc(-c3ccc(Oc4ccccc4)cc3)c3c(N)ncnc32)CC1,3650 nM,110 nM,75 nM
CCC(=O)N1CCC[C@@H](n2nc(-c3ccc(Oc4ccccc4)cc3)c3c(N)ncnc32)C1,3800 nM,130 nM,28 nM
CC(=O)N1CCC[C@@H](n2nc(-c3ccc(Oc4ccccc4)cc3)c3c(N)ncnc32)C1,5500 nM,350 nM,70 nM
NCC(=O)N1CC[C@@H](n2nc(-c3ccc(Oc4ccccc4)cc3)c3c(N)ncnc32)C1,7590 nM,180 nM,80 nM
CC(C)[C@@H](N)C(=O)N1CCC[C@@H](n2nc(-c3ccc(Oc4ccccc4)cc3)c3c(N)ncnc32)C1,1400 nM,27 nM,17 nM
NCCC(=O)N1CCC[C@@H](n2nc(-c3ccc(Oc4ccccc4)cc3)c3c(N)ncnc32)C1,> 10000 nM,750 nM,390 nM
CN1CCC(C(=O)N2CCC[C@@H](n3nc(-c4ccc(Oc5ccccc5)cc4)c4c(N)ncnc43)C2)CC1,5000 nM,160 nM,77 nM
CC(O)[C@@H](N)C(=O)N1CCC[C@@H](n2nc(-c3ccc(Oc4ccccc4)cc3)c3c(N)ncnc32)C1 (some centres not stated),3900 nM,64 nM,22 nM
CC(C)C[C@@H](N)C(=O)N1CC[C@@H](n2nc(-c3ccc(Oc4ccccc4)cc3)c3c(N)ncnc32)C1,2150 nM,120 nM,41 nM
CC[C@@H](C)[C@@H](N)C(=O)N1CCC[C@@H](n2nc(-c3ccc(Oc4ccccc4)cc3)c3c(N)ncnc32)C1,1700 nM,120 nM,88 nM
CS(=O)(=O)N1CCC(n2nc(-c3ccc(Oc4ccccc4)cc3)c3c(N)ncnc32)CC1,> 10000 nM,630 nM,190 nM
C=CC(=O)N1CCC[C@@H](n2nc(-c3ccc(/C=C/c4ccccc4)cc3)c3c(N)ncnc32)C1,> 10000 nM,> 10000 nM,1800 nM
